Laboratory results from US4997829A, “Penem compounds, and use thereof” (Suntory Limited, priority 1985, dated 1991).

Legend:
Assay in all cases: Minimum inhibitory concentration (MIC), agar plate dilution method
Assay type in all cases: cell-based
S. aureus FAD209P JC-1 = settings: 10^6 CFU inoculated, 37° C., 18 hours; for MIC: Staphylococcus aureus, FAD209PJC1
Method: (§1) With regard to the novel compounds obtained according to this invention and the compounds of Reference Examples, their minimum inhibitory concentrations (MIC) were determined by the agar plate dilution method in accordance with the MIC measuring standard method of The Chemotherapeutic Society of Japan, whereby 10^6 colony forming units were inoculated and the minimal concentration to inhibit the microbial growth after inclubation at 37° C. for 18 hours were determined, as shown as μg/ml in Table.

E. coli W3630/Rms212 = settings: for MIC: Escherichia coli, W3630/RMS212, 18 h, read-out: minimum inhibitory concentration (MIC)
Method: as §1

Al. fecalis IFO13111 = settings: 10^6 CFU inoculated, 37° C., 18 hours
Method: as §1

Ser. marcescens IMA 1136 = settings: 10^6 CFU inoculated, 37° C., 18 hours; for MIC: Serratia marcescens, IMA1136
Method: as §1

Ent. cloacae 963 = settings: 10^6 CFU inoculated, 37° C., 18 hours; for MIC: Enterobacter cloacae, 963
Method: as §1

E. coli NIHI JC-2 = settings: 10^6 CFU inoculated, 37° C., 18 hours; for MIC: Escherichia coli, NIHIJC2
Method: as §1

E. coli W3630/Rms213 = settings: for MIC: Escherichia coli, W3630/RMS213, 18 h, read-out: minimum inhibitory concentration (MIC)
Method: as §1

Pr. morganii IFO3848 = settings: 10^6 CFU inoculated, 37° C., 18 hours; for MIC: Morganella morganii, IFO3848
Method: as §1

M. luteus ATCC9341 = settings: 10^6 CFU inoculated, 37° C., 18 hours; for MIC: Micrococcus luteus, ATCC9341
Method: as §1

K. pneumoniae PC1602 = settings: 10^6 CFU inoculated, 37° C., 18 hours; for MIC: Klebsiella pneumoniae, PC1602
Method: as §1

Pr. vulgaris GN7919 = settings: 10^6 CFU inoculated, 37° C., 18 hours; for MIC: Proteus vulgaris, GN7919
Method: as §1

B. fragilis GM7000 = settings: 10^6 CFU inoculated, 37° C., 18 hours; for MIC: Bacteroides fragilis, GM7000
Method: as §1

F. varium ATCC8501 = settings: 10^6 CFU inoculated, 37° C., 18 hours; for MIC: Fusobacterium varium, ATCC8501
Method: as §1

B. fragilis V-280-1 = settings: 10^6 CFU inoculated, 37° C., 18 hours; for MIC: Bacteroides fragilis, V2801
Method: as §1

[1] = 10^6 CFU inoculated, 37° C., 18 hours

| Compound | MIC (S. aureus FAD209P JC-1) [µg/mL] | MIC (E. coli W3630/Rms212) [µg/mL] | MIC (Al. fecalis IFO13111) [µg/mL] | MIC (Ser. marcescens IMA 1136) [µg/mL] | MIC (Ent. cloacae 963) [µg/mL] | MIC (E. coli NIHI JC-2) [µg/mL] | MIC (E. coli W3630/Rms213) [µg/mL] | MIC (Pr. morganii IFO3848) [µg/mL] | MIC (M. luteus ATCC9341) [µg/mL] | MIC (K. pneumoniae PC1602) [µg/mL] | MIC (Pr. vulgaris GN7919) [µg/mL] | MIC (B. fragilis GM7000) [µg/mL] | MIC (F. varium ATCC8501) [µg/mL] | MIC (B. fragilis V-280-1) [µg/mL] | also measured |
| --- | --- | --- | --- | --- | --- | --- | --- | --- | --- | --- | --- | --- | --- | --- | --- |
| C[C@@H](O)[C@H]1C(=O)N2C(C(=O)O)=C([C@H]3CCC(=O)O3)S[C@H]12 [SUN 4374, Potassium (1'R, 2"R, 5R, 6S)-6-(1'-hydroxyethyl)-2[2"-(5"-oxo)oxolanyl]penem-3-carboxylate] | 0.1 | 1.56 | 1.56 | 3.13 | 3.13 | 1.56 | 0.78 | 3.13 | 0.1 | 0.39 | 0.78 |  |  |  |  |
| C[C@@H](O)[C@H]1C(=O)N2C(C(=O)O)=C(C3COCCO3)S[C@H]12 (mixture of isomers) [SUN 4742, Potassium (1'R, 2"s, 5R, 6S and 1'R, 2"R, 5R, 6S)-6-(1'-hydroxyethyl)-2-(2"-paradioxanyl)penem-3-carboxylate] | 0.05 | 3.13 | 0.78 | 6.25 | 6.25 | 1.56 | 0.78 | 6.25 | 0.1 | 0.1 | 0.78 | 0.05 | 0.78 | 0.05 |  |
| CCOCC1=C(C(=O)O)N2C(=O)[C@H]([C@@H](C)O)[C@H]2S1 (relative stereo) [SUN 3519, Potassium (1'R, 5R, 6S and 1's, 5S, 6R)-2-(ethoxymethyl)-6-(1'-hydroxyethyl)-penem-3-carboxylate, reference compound] | 0.2 | 6.25 | 1.56 | 12.5 | 12.5 | 6.25 | 6.25 | 6.25 | 0.2 | 1.56 | 1.56 | 0.1 | 0.39 | 0.1 |  |
| C[C@@H](O)[C@H]1C(=O)N2C(C(=O)O)=C(c3ccoc3)S[C@H]12 (relative stereo) [SUN 4196, Potassium (1'R, 5R, 6S and 1'S, 5S, 6R)-2-(3"-furanyl)-6(1'-hydroxyethyl)penem-3-carboxylate, reference compound] | 0.2 | 25 | 12.5 | 25 | 25 | 1.25 | 25 | 12.5 | 0.2 | 3.13 | 3.13 | 0.78 | 6.25 | 12.5 |  |
| C[C@@H](O)[C@H]1C(=O)N2C(C(=O)O)=C([C@@H]3CCCO3)S[C@H]12 [SUN 4434, Potassium (1'R, 2"S, 5R, 6S)-6-(1'-hydroxyethyl)-2-(2"-tetrahydofuranyl)penem-3-carboxylate] | 0.05 | 12.5 | 3.13 | 25 | 12.5 |  | 6.25 |  | < 0.025 |  | 0.78 |  | 1.56 | 0.2 |  |
| C[C@@H](O)[C@H]1C(=O)N2C(C(=O)O)=C(C3CCCO3)S[C@H]12 (relative stereo) [SUN 4068, potassium (1'R, 2"R, 5R, 6S and 1'R, 2"S, 5R, 6S and 1'S, 2"R, 5S, 6R and 1'S, 2"S, 5S, 6R)-6-(1'-hydroxyethyl)-2-(2"-tetrahydrofuranyl)penem-3-carboxylate] | 0.1 | 3.13 | 1.56 | 6.25 | 6.25 | 1.56 | 3.13 | 3.13 | 0.1 | 0.39 | 0.78 | 0.05 | 0.78 | 0.2 |  |
| C[C@@H](O)[C@H]1C(=O)N2C(C(=O)O)=C([C@@H]3CCCCO3)S[C@H]12 [SUN 4740, Potassium (1'R, 2"S, 5R, 6S)-6-(1'-hydroxyethyl)-2-(2"-tetrahydropyranyl)penem-3-carboxylate] | 0.1 | > 50 | 6.25 | > 50 | > 50 | > 50 | > 50 | 25 | 0.05 | 3.13 | 1.25 | 0.78 | 6.25 | 0.78 |  |
| C[C@@H](O)[C@H]1C(=O)N2C(C(=O)O)=C([C@@H]3CCCO3)S[C@H]12 (relative stereo) [SUN 4118, potassium (1'R, 2"S, 5R, 6S and 1'S, 2"R, 5S, 6R)-6-(1'-hydroxyethyl)-2-(2"-tetrahydrofuranyl)penem-3-carboxylate] | 0.1 | 12.5 | 1.56 | 25 | 25 |  | 12.5 |  | 0.05 |  | 1.56 |  | 1.56 | 0.2 |  |
| C[C@@H](O)[C@H]1C(=O)N2C(C(=O)O)=C([C@@H]3COCCO3)S[C@H]12 [SUN 4770, Potassium (1'R, 2"S, 5R, 6S)-6-(1'-hydroxyethyl)-2-(2"-para-dioxanyl)penem-3-carboxylate] | 0.2 | 12.5 | 6.25 | 50 | 25 | 1.56 | 12.5 | 25 | 0.1 | 0.78 | 6.25 | 0.39 | 3.13 | 0.39 |  |
| C[C@@H](O)[C@@H]1C(=O)N2C(C(=O)[O-])=C([C@H]3CCC(=O)O3)S[C@@H]12.[K+] [SUN 4325, Potassium (1'R, 2"R, 5S, 6R)-6-(1'-hydroxyethyl)-2[2"-(5"-oxo)oxolanyl]penem-3-carboxylate] |  |  |  |  |  |  |  |  |  |  |  |  |  |  | minimum inhibitory concentration (MIC) (S. aureus FAD209P JC-1): 3.13 µg/mL; minimum inhibitory concentration (MIC) (E. coli W3630/Rms212; [1]): > 50 µg/mL; minimum inhibitory concentration (MIC) (Al. fecalis IFO13111): 12.5 µg/mL; minimum inhibitory concentration (MIC) (Ser. marcescens IMA 1136): 50 µg/mL; minimum inhibitory concentration (MIC) (Ent. cloacae 963): > 50 µg/mL; minimum inhibitory concentration (MIC) (E. coli NIHI JC-2): 25 µg/mL; minimum inhibitory concentration (MIC) (E. coli W3630/Rms213; [1]): 25 µg/mL; minimum inhibitory concentration (MIC) (Pr. morganii IFO3848): 50 µg/mL; minimum inhibitory concentration (MIC) (M. luteus ATCC9341): 1.56 µg/mL; minimum inhibitory concentration (MIC) (K. pneumoniae PC1602): 1.25 µg/mL; minimum inhibitory concentration (MIC) (Pr. vulgaris GN7919): > 50 µg/mL; minimum inhibitory concentration (MIC) (B. fragilis GM7000): 3.13 µg/mL; minimum inhibitory concentration (MIC) (F. varium ATCC8501): > 12.5 µg/mL; minimum inhibitory concentration (MIC) (B. fragilis V-280-1): > 12.5 µg/mL |
| C[C@@H](O)[C@H]1C(=O)N2C(C(=O)O)=C([C@H]3CCCCO3)S[C@H]12 [SUN 4741, Potassium (1'R, 2"R, 5R, 6S)-6-(1'-hydroxyethyl)-2-(2"-tetrahydropyranyl)penem-3-carboxylate] | 0.1 | 12.5 | 0.78 | 25 | 25 | 6.25 | 6.25 | 3.13 | 0.1 | 0.1 | 3.13 | 0.1 | 0.39 | 0.1 |  |
| COCC1=C(C(=O)O)N2C(=O)[C@H]([C@@H](C)O)[C@H]2S1 (relative stereo) [SUN 3585, Potassium (1'R, 5R, 6S and 1'S, 5S, 6R)-6-(1-hydroxyethyl)-2-(methoxymethyl)penem-3-carboxylate, reference compound] | 0.1 | 0.78 | 1.56 | 3.13 | 3.13 | 0.78 | 0.78 | 6.25 | 0.1 | 0.78 | 0.78 | 0.05 | 0.78 | 0.1 |  |
| C[C@@H](O)[C@H]1C(=O)N2C(C(=O)O)=C([C@@H]3CCC(=O)O3)S[C@H]12 [SUN 4262, Potassium (1'R, 2"S, 5R, 6S)-6-(1'-hydroxyethyl)-2-[2"-(5"-oxo)oxolanyl]penem-3-carboxylate] | 0.2 | 3.13 | 3.13 | 12.5 | 12.5 | 3.13 | 3.13 | 12.5 | 0.2 | 1.56 | 3.13 | 0.2 | 3.13 | 0.2 |  |
